Experiments:
PLC/PRF/5 [1] = test: CellTiter-Glo IG50, Example 8, PLC/PRF/5; format: cell-based; settings: Homo sapiens, PLC/PRF/5, 72 hours
Procedure: (§1) Various pancreatic, liver, colon, breast, and stomach cancer cell lines were exposed to the NF-κB inhibitors of the present invention, including, for example, IT-839, IT-843, IT-848, and IT-878, and assessed for IG50 in the CellTiter Glo 2.0 assay.
(§2) The cells were cultured in an atmosphere of 37° C., 5% CO2 and 95% humidity. All culture media and FBS were purchased from GIBCO, Hyclone or Sigma, USA. The media used for cell culture is described in the table below.
(§3) The cells were harvested during the logarithmic growth period and counted. Cell concentrations were adjusted to the appropriate number in appropriate medium and 90 μl cell suspensions were added to 96-well plates. When cells were added, the plates were shaken gently to distribute the cells evenly. Cells were incubated at 37° C. and 5% CO2.
(§4) 3× serial dilutions of test compound stock solutions with respective solvents were prepared. The stock solutions were diluted with culture medium to generate 10× working solutions of the test compounds. 10 μl of the 10× test compound solutions were added to each well in triplicate for each concentration. Plates were incubated for 72 hours in a humidified incubator at 37° C. and 5% CO2.
(§5) CellTiter-Glo (CTG) solution was thawed and equilibrated to room temperature. 50 μl of CTG were added to each well and the contents were mixed for 2 minutes on a plate shaker. Cells were incubated for 10 minutes before luminescence signal was recorded using Envision.
(§6) Cell viability was plotted with GraphPad Prism version 5 and the IG50 was calculated for each cell line. The graphical curves were fitted using a nonlinear regression model with a sigmoidal dose response. IG50 is the concentration of test drug where 100×T/C=50 (the optical density of the test well after a 3-day period of exposure to test drug is T; the control optical density is C).

HepG2 [2] = test: CellTiter-Glo IG50, Example 8, HepG2; format: cell-based; settings: Homo sapiens, HepG2, 72 hours
Procedure: as §1, §2, §3, §4, §5, §6

Hep3B [3] = test: CellTiter-Glo IG50, Example 8, Hep3B; format: cell-based; settings: Homo sapiens, 72 hours
Procedure: as §1, §2, §3, §4, §5, §6

HepG2 [4] = test: CellTiter-Glo IG50, Example 9 HCC panel, HepG2; format: cell-based; settings: Homo sapiens, HepG2, 72 hours
Procedure: as §3, §4, §5, §6, §2
(§7) Following the cell culture protocol and data analysis methods described in Example 8, the following IG50 results (in μM) were observed: […]

Hep3B [5] = test: CellTiter-Glo IG50, Example 9 HCC panel, Hep3B; format: cell-based; settings: Homo sapiens, 72 hours
Procedure: as §3, §4, §5, §6, §2, §7

PLC/PRF/5 [6] = test: CellTiter-Glo IG50, Example 9 HCC panel, PLC/PRF/5; format: cell-based; settings: Homo sapiens, PLC/PRF/5, 72 hours
Procedure: as §3, §4, §5, §6, §2, §7

HUH7 [7] = test: CellTiter-Glo IG50, Example 9 HCC panel, HUH7; format: cell-based; settings: Homo sapiens, Huh-7, HUH7, 72 hours
Procedure: as §3, §4, §5, §6, §2, §7

JHH5 [8] = test: CellTiter-Glo IG50, Example 9 HCC panel, JHH5; format: cell-based; settings: JHH5, 72 hours
Procedure: as §3, §4, §5, §6, §2, §7

PBMC [9] = test: CellTiter-Glo IG50, Example 9 HCC panel, PBMC; format: cell-based; settings: 72 hours
Procedure: as §3, §4, §5, §6, §2, §7

SNU878 [10] = test: CellTiter-Glo IG50, Example 9 HCC panel, SNU878; format: cell-based; settings: SNU878, 72 hours
Procedure: as §3, §4, §5, §6, §2, §7

HepG2 [11] = test: CellTiter-Glo IG50, Example 10 HCC panel, HepG2; format: cell-based; settings: Homo sapiens, HepG2, 72 hours
Procedure: as §3, §4, §5, §6, §2
(§8) Following the cell culture protocol and data analysis method described in Example 8, the following IG50 results (in μM) were observed: […]

Hep3B [12] = test: CellTiter-Glo IG50, Example 10 HCC panel, Hep3B; format: cell-based; settings: Homo sapiens, 72 hours
Procedure: as §3, §4, §5, §6, §2, §8

PLC/PRF/5 [13] = test: CellTiter-Glo IG50, Example 10 HCC panel, PLC/PRF/5; format: cell-based; settings: Homo sapiens, PLC/PRF/5, 72 hours
Procedure: as §3, §4, §5, §6, §2, §8

HUH7 [14] = test: CellTiter-Glo IG50, Example 10 HCC panel, HUH7; format: cell-based; settings: Homo sapiens, Huh-7, HUH7, 72 hours
Procedure: as §3, §4, §5, §6, §2, §8

JHH5 [15] = test: CellTiter-Glo IG50, Example 10 HCC panel, JHH5; format: cell-based; settings: JHH5, 72 hours
Procedure: as §3, §4, §5, §6, §2, §8

PBMC [16] = test: CellTiter-Glo IG50, Example 10 HCC panel, PBMC; format: cell-based; settings: 72 hours
Procedure: as §3, §4, §5, §6, §2, §8

SNU878 [17] = test: CellTiter-Glo IG50, Example 10 HCC panel, SNU878; format: cell-based; settings: SNU878, 72 hours
Procedure: as §3, §4, §5, §6, §2, §8

Capan-1 = test: CellTiter-Glo IG50, Example 8, Capan-1; format: cell-based; settings: Homo sapiens, Capan-1, 72 hours
Procedure: as §1, §2, §3, §4, §5, §6

PANC-1 = test: CellTiter-Glo IG50, Example 8, PANC-1; format: cell-based; settings: Homo sapiens, PANC-1, 72 hours
Procedure: as §1, §2, §3, §4, §5, §6

MIAPACA-2 = test: CellTiter-Glo IG50, Example 8, MIAPACA-2; format: cell-based; settings: Homo sapiens, MIA PaCa-2, MIAPACA-2, 72 hours
Procedure: as §1, §2, §3, §4, §5, §6

HCT116 = test: CellTiter-Glo IG50, Example 8, HCT116; format: cell-based; settings: Homo sapiens, HCT-116, HCT116, 72 hours
Procedure: as §1, §2, §3, §4, §5, §6

HT-29 = test: CellTiter-Glo IG50, Example 8, HT-29; format: cell-based; settings: Homo sapiens, HT-29, 72 hours
Procedure: as §1, §2, §3, §4, §5, §6

LoVo = test: CellTiter-Glo IG50, Example 8, LoVo; format: cell-based; settings: Homo sapiens, 72 hours
Procedure: as §1, §2, §3, §4, §5, §6

MCF-7 = test: CellTiter-Glo IG50, Example 8, MCF-7; format: cell-based; settings: Homo sapiens, MCF7, MCF-7, 72 hours
Procedure: as §1, §2, §3, §4, §5, §6

MDA-MB-231 = test: CellTiter-Glo IG50, Example 8, MDA-MB-231; format: cell-based; settings: Homo sapiens, MDA-MB-231, 72 hours
Procedure: as §1, §2, §3, §4, §5, §6

T47D = test: CellTiter-Glo IG50, Example 8, T47D; format: cell-based; settings: Homo sapiens, 72 hours
Procedure: as §1, §2, §3, §4, §5, §6

AGS = test: CellTiter-Glo IG50, Example 8, AGS; format: cell-based; settings: Homo sapiens, 72 hours
Procedure: as §1, §2, §3, §4, §5, §6

MKN45 = test: CellTiter-Glo IG50, Example 8, MKN45; format: cell-based; settings: Homo sapiens, MKN-45, MKN45, 72 hours
Procedure: as §1, §2, §3, §4, §5, §6

KATO III = test: CellTiter-Glo IG50, Example 8, KATO III; format: cell-based; settings: Homo sapiens, 72 hours
Procedure: as §1, §2, §3, §4, §5, §6

c-Rel protein = biological target: T1, c-Rel protein (Homo sapiens, UniProt Q04864); test: Electrophoretic Mobility Shift Assay (EMSA), c-Rel binding to CD28RE oligonucleotide; settings: 10 nM c-Rel protein
T1 sequence (Q04864 1-619): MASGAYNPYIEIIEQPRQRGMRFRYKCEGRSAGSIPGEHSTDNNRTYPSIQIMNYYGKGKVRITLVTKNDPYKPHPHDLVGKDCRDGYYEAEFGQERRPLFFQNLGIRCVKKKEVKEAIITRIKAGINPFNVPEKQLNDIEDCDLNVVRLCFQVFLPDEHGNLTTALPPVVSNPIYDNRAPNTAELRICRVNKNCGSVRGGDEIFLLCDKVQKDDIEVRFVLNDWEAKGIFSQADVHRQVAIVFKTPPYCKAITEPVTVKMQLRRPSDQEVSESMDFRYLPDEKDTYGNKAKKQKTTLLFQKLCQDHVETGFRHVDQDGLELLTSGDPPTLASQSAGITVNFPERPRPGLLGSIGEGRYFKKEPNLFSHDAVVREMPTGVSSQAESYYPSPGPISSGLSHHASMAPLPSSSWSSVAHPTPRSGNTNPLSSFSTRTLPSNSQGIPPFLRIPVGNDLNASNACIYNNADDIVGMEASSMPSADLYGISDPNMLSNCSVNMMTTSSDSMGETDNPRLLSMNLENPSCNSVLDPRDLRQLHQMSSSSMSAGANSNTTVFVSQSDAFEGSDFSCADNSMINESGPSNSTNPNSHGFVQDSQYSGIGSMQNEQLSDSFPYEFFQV
Procedure: DNA binding reaction (20 μL) was carried out in 1×DNA Binding Buffer (10 mM Tris, 40 mM NaCl, 1 mM EDTA, 4% glycerol) with 10 nM c-Rel protein and 0.5 ng phosphor-labeled CD28RE oligonucleotide for 10 minutes at room temperature in 96-well plates. Test compounds, in serial dilutions, were added into each well, and further incubated for 15 minutes before loading onto native 5% polyacrylamide gel. Electrophoresis proceeded for 2.5 hours at 160V. Radioactive signals were quantified using Phospho-Imager. IC50 of compounds of example 1 to 75 were determined by quantifying the intensity of Rel/NF-κB inhibition in EMSA using phospho-imager. An example of EMSA data of the present invention is shown for compound 6 in FIG. 2.

NF-κB = NF-κB GFP assay in NFκB/Jurkat/GFP transcriptional reporter cells stimulated with TNF-α; format: cell-based; settings: Homo sapiens, TNF-α 5 ng/ml, 24 hours, read-out: NF-KB GFP IC50
Procedure: NFκB/Jurkat/GFP transcriptional reporter cell line was obtained from SBI System Biosciences. NF-κB/Jurkat/GFP™ Reporter cells (5×10^5 cells) were plated at a concentration of 1 million cells/ml into each well of a 24-well plate. TNF-α (5 ng/ml) was added. Compounds were added via serial dilutions to corresponding wells. After 24 hours, 100 μl of the cells were transferred to a well of a Costar® UV plate (96 well, No lid, w/UV Transparent Flat Bottom, Corning, N.Y., Cat #3635) and the intensity of GFP fluorescence was measured (Excitation 485+/−20, Emission 528+/−20) in a Synergy™ HT Multi-Detection Microplate Reader (BioTech, Winooski, Vt.). The intensities of GFP measured were plotted against the […].

## CNC(=O)c1cc(Oc2ccc(NC(=O)Nc3ccc(Cl)c(C(F)(F)F)c3)cc2)ccn1 [Sorafenib, sorafenib, reference compound]
PLC/PRF/5 [1]
  IC50: 10.8 µM
HepG2 [2]
  IC50: 5.14 µM
Hep3B [3]
  IC50: 7.49 µM
HepG2 [4]
  IC50: 3.15 µM
Hep3B [5]
  IC50: 7.57 µM
PLC/PRF/5 [6]
  IC50: 10.8 µM
HUH7 [7]
  IC50: 6.57 µM
JHH5 [8]
  IC50: 3.21 µM
PBMC [9]
  IC50: 19.5 µM
SNU878 [10]
  IC50: 12.7 µM
HepG2 [11]
  IC50: 4.37 µM
Hep3B [12]
  IC50: 6.42 µM
PLC/PRF/5 [13]
  IC50: 10.1 µM
HUH7 [14]
  IC50: 5.14 µM
JHH5 [15]
  IC50: 7.13 µM
PBMC [16]
  IC50: 14.4 µM
SNU878 [17]
  IC50: 10.6 µM

## CCCCCOc1ccc2cc3c(=O)[nH]c(=O)nc-3oc2c1Cl [IT-843]
Capan-1
  IC50: > 16 µM
PANC-1
  IC50: 5.54 µM
MIAPACA-2
  IC50: 10.2 µM
PLC/PRF/5 [1]
  IC50: > 16 µM
HepG2 [2]
  IC50: 3.94 µM
Hep3B [3]
  IC50: 1.42 µM
HCT116
  IC50: 9.4 µM
HT-29
  IC50: 6.61 µM
LoVo
  IC50: 2.89 µM
MCF-7
  IC50: 6.81 µM
MDA-MB-231
  IC50: 2.68 µM
T47D
  IC50: 4.96 µM
AGS
  IC50: 4.44 µM
MKN45
  IC50: > 16 µM
KATO III
  IC50: > 16 µM
HepG2 [4]
  IC50: 4.53 µM
Hep3B [5]
  IC50: 3.6 µM
PLC/PRF/5 [6]
  IC50: > 16 µM
HUH7 [7]
  IC50: 5.16 µM
JHH5 [8]
  IC50: 13.3 µM
PBMC [9]
  IC50: 1.09 µM
SNU878 [10]
  IC50: > 16 µM

## O=C(O)CCCCOc1ccc2cc3c(=O)[nH]c(=O)nc-3oc2c1Cl [compound 54]
c-Rel protein
  IC50: < 5 µM
NF-κB
  IC50: < 20 µM

— patent publication US11083729B2, “Methods of treating cancer with small molecule NF-κB inhibitors” (ImmuneTarget, Inc., priority 2017, dated 2021)
